According to PubChem BioAssay (NCI):
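The concentration for 50% growth inhibition is given as GI50. At the TGI there is no net growth.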

What was measured:
Assay in all cases: NCI-60 cell line screen, 384-well format
[1] = test system: 786-0 renal
[2] = test system: A498 renal
[3] = test system: A549 NSCLC
[4] = test system: ACHN renal
[5] = test system: BT-549 breast
[6] = test system: CAKI-1 renal
[7] = test system: CCRF-CEM leukemia
[8] = test system: COLO 205 colon
[9] = test system: DU-145 prostate
[10] = test system: EKVX NSCLC
[11] = test system: HCC-2998 colon
[12] = test system: HCT-116 colon
[13] = test system: HCT-15 colon
[14] = test system: HL-60(TB) leukemia
[15] = test system: HOP-62 NSCLC
[16] = test system: HOP-92 NSCLC
[17] = test system: HS 578T breast
[18] = test system: HT29 colon
[19] = test system: IGROV1 ovarian
[20] = test system: K-562 leukemia
[21] = test system: KM12 colon
[22] = test system: LOX IMVI melanoma
[23] = test system: M14 melanoma
[24] = test system: MALME-3M melanoma
[25] = test system: MCF7 breast
[26] = test system: MDA-MB-231 breast
[27] = test system: MDA-MB-435 melanoma
[28] = test system: MDA-MB-468 breast
[29] = test system: MOLT-4 leukemia
[30] = test system: NCI-H226 lung
[31] = test system: NCI-H23 lung
[32] = test system: NCI-H322M lung
[33] = test system: NCI-H460 NSCLC
[34] = test system: NCI-H522 lung
[35] = test system: NCI/ADR-RES ovarian
[36] = test system: OVCAR-4 ovarian
[37] = test system: OVCAR-5 ovarian
[38] = test system: OVCAR-8 ovarian
[39] = test system: PC-3 prostate
[40] = test system: RPMI-8226 leukemia
[41] = test system: RXF 393 renal
[42] = test system: SF-268 CNS
[43] = test system: SF-295 CNS
[44] = test system: SF-539 CNS
[45] = test system: SK-MEL-28 melanoma
[46] = test system: SK-MEL-5 melanoma
[47] = test system: SN12C renal
[48] = test system: SNB-19 CNS
[49] = test system: SNB-75 CNS
[50] = test system: SW-620 colon
[51] = test system: T-47D breast
[52] = test system: TK-10 renal
[53] = test system: U251 glioblastoma
[54] = test system: UACC-257 melanoma
[55] = test system: UACC-62 melanoma
[56] = test system: UO-31 renal
[57] = test system: OVCAR-3 ovarian
[58] = test system: SK-MEL-2 melanoma
[59] = test system: SK-OV-3 ovarian
[60] = test system: SR leukemia

Structure (SMILES): O=C1NC(=O)C(c2cnc3ccccn23)=C1c1cn2c3c(cc(F)cc13)CN(C(=O)N1CCCCC1)CC2
- GI50 [1]: 77.9 nM
- TGI [1]: 12400 nM
- GI50 [2]: 15.6 nM
- TGI [2]: 13200 nM
- GI50 [3]: 2360 nM
- TGI [3]: 27800 nM
- GI50 [4]: 743 nM
- TGI [4]: 11300 nM
- GI50 [5]: < 10 nM
- TGI [5]: 18600 nM
- GI50 [6]: 259 nM
- TGI [6]: 51400 nM
- GI50 [7]: < 10 nM
- TGI [7]: 245 nM
- GI50 [8]: 12700 nM
- TGI [8]: 26000 nM
- GI50 [9]: 2180 nM
- TGI [9]: 8620 nM
- GI50 [10]: 11700 nM
- TGI [10]: 26200 nM
- GI50 [11]: 128 nM
- TGI [11]: 773 nM
- GI50 [12]: 1120 nM
- TGI [12]: 28400 nM
- GI50 [13]: 12400 nM
- TGI [13]: 34100 nM
- GI50 [14]: 464 nM
- TGI [14]: 2720 nM
- GI50 [15]: 172 nM
- TGI [15]: 2580 nM
- GI50 [16]: 1320 nM
- TGI [16]: > 100000 nM
- GI50 [17]: < 10 nM
- GI50 [18]: 10300 nM
- TGI [18]: 24500 nM
- GI50 [19]: 2730 nM
- TGI [19]: 22200 nM
- GI50 [20]: < 10 nM
- TGI [20]: 19100 nM
- GI50 [21]: 4890 nM
- TGI [21]: 21600 nM
- GI50 [22]: 770 nM
- TGI [22]: 9290 nM
- GI50 [23]: 2180 nM
- TGI [23]: 12000 nM
- GI50 [24]: 11100 nM
- TGI [24]: 24000 nM
- GI50 [25]: < 10 nM
- TGI [25]: 17100 nM
- GI50 [26]: 16300 nM
- TGI [26]: 54900 nM
- GI50 [27]: 14800 nM
- TGI [27]: 40400 nM
- GI50 [28]: 28.3 nM
- TGI [28]: 116 nM
- GI50 [29]: < 10 nM
- TGI [29]: 10.7 nM
- GI50 [30]: 1840 nM
- TGI [30]: 11400 nM
- GI50 [31]: 11000 nM
- TGI [31]: 25300 nM
- GI50 [32]: 7720 nM
- TGI [32]: 29200 nM
- GI50 [33]: 701 nM
- TGI [33]: 3170 nM
- GI50 [34]: 13500 nM
- TGI [34]: 26700 nM
- GI50 [35]: 5910 nM
- TGI [35]: 21200 nM
- GI50 [36]: 11400 nM
- TGI [36]: 32000 nM
- GI50 [37]: 23000 nM
- TGI [37]: 55300 nM
- GI50 [38]: 833 nM
- TGI [38]: 14400 nM
- GI50 [39]: 2170 nM
- TGI [39]: 18800 nM
- GI50 [40]: 901 nM
- TGI [40]: 20700 nM
- GI50 [41]: < 10 nM
- TGI [41]: 362 nM
- GI50 [42]: 138 nM
- TGI [42]: 491 nM
- GI50 [43]: 17.5 nM
- TGI [43]: 735 nM
- GI50 [44]: < 10 nM
- TGI [44]: 12700 nM
- GI50 [45]: 15200 nM
- TGI [45]: 29200 nM
- GI50 [46]: 4080 nM
- TGI [46]: 15400 nM
- GI50 [47]: 10700 nM
- TGI [47]: 38900 nM
- GI50 [48]: 1340 nM
- TGI [48]: 37900 nM
- GI50 [49]: < 10 nM
- TGI [49]: 14400 nM
- GI50 [50]: 379 nM
- TGI [50]: 15000 nM
- GI50 [51]: 12700 nM
- TGI [51]: 28000 nM
- GI50 [52]: 59.8 nM
- TGI [52]: 43700 nM
- GI50 [53]: 30.3 nM
- TGI [53]: 332 nM
- GI50 [54]: 18600 nM
- TGI [54]: 33700 nM
- GI50 [55]: 513 nM
- TGI [55]: 3740 nM
- GI50 [56]: < 10 nM
- TGI [56]: 39.8 nM

Structure (SMILES): Cc1nc2c(-c3cnc(N)nc3)nc(N3CCOCC3)nc2n1C(C)C
- GI50 [1]: 246 nM
- TGI [1]: 5940 nM
- GI50 [2]: 55.9 nM
- TGI [2]: 322 nM
- GI50 [3]: 108 nM
- TGI [3]: 3600 nM
- GI50 [5]: 95.3 nM
- TGI [5]: 469 nM
- GI50 [6]: 75.1 nM
- TGI [6]: 581 nM
- GI50 [9]: 149 nM
- TGI [9]: > 100000 nM
- GI50 [10]: 86.6 nM
- TGI [10]: 380 nM
- GI50 [12]: 479 nM
- TGI [12]: > 100000 nM
- GI50 [13]: 76.1 nM
- TGI [13]: > 100000 nM
- GI50 [14]: 156 nM
- TGI [14]: 1040 nM
- GI50 [15]: 158 nM
- TGI [15]: 13000 nM
- GI50 [16]: 67.5 nM
- TGI [16]: 435 nM
- GI50 [17]: 66.1 nM
- TGI [17]: 273 nM
- GI50 [18]: 191 nM
- TGI [18]: > 100000 nM
- GI50 [19]: 21.8 nM
- TGI [19]: 133 nM
- GI50 [21]: 270 nM
- TGI [21]: > 100000 nM
- GI50 [22]: 232 nM
- TGI [22]: 860 nM
- GI50 [24]: 44.3 nM
- TGI [24]: 262 nM
- GI50 [25]: 36 nM
- TGI [25]: > 100000 nM
- GI50 [27]: 184 nM
- TGI [27]: 845 nM
- GI50 [28]: 65.9 nM
- TGI [28]: 351 nM
- GI50 [29]: 61.8 nM
- TGI [29]: 344 nM
- GI50 [30]: 122 nM
- TGI [30]: 2390 nM
- GI50 [32]: 125 nM
- TGI [32]: 50500 nM
- GI50 [33]: 39 nM
- TGI [33]: > 100000 nM
- GI50 [34]: 92.2 nM
- TGI [34]: 941 nM
- GI50 [57]: 107 nM
- TGI [57]: 713 nM
- GI50 [36]: 118 nM
- TGI [36]: 803 nM
- GI50 [37]: 190 nM
- TGI [37]: > 100000 nM
- GI50 [39]: 52.8 nM
- TGI [39]: > 100000 nM
- GI50 [40]: 59.6 nM
- TGI [40]: 252 nM
- GI50 [41]: 78.9 nM
- TGI [41]: 379 nM
- GI50 [43]: 79.1 nM
- TGI [43]: 431 nM
- GI50 [44]: 167 nM
- TGI [44]: 1120 nM
- GI50 [58]: 566 nM
- TGI [58]: 941 nM
- GI50 [45]: 153 nM
- TGI [45]: 969 nM
- GI50 [46]: 87.8 nM
- TGI [46]: 337 nM
- GI50 [59]: 92.7 nM
- TGI [59]: 430 nM
- GI50 [49]: 35.5 nM
- TGI [49]: 220 nM
- GI50 [60]: 195 nM
- TGI [60]: 619 nM
- GI50 [50]: 460 nM
- TGI [50]: > 100000 nM
- GI50 [51]: 31.3 nM
- TGI [51]: 166 nM
- GI50 [52]: 54.9 nM
- TGI [52]: 465 nM
- GI50 [55]: 147 nM
- TGI [55]: 847 nM
